Test results published in ChEMBL document CHEMBL1201862, “PubChem BioAssay data set” (2004).
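Assay format: 96-well plates, 48-hour exposure. GI50 marks 50% less growth.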 Active and inactive are the calls of the source. Rule as the data show it: active = GI50 up to about 1.1 µM and inactive = higher.

Assays:
Experiment in all cases: NCI tumour cell line growth inhibition, 48 h
PC-3 = system: PC-3
LOX IMVI = system: LOX IMVI
SNB-75 = system: SNB-75
RXF 393 = system: RXF 393
SK-MEL-28 = system: SK-MEL-28
NCI-H460 = system: NCI-H460
DU-145 = system: DU-145
OVCAR-5 = system: OVCAR-5
SF-295 = system: SF-295
OVCAR-3 = system: OVCAR-3
NCI-H23 = system: NCI-H23
K562 = system: K562
KM12 = system: KM12
Malme-3M = system: Malme-3M
A549 = system: A549
HT-29 = system: HT-29
HL-60 = system: HL-60
CCRF-CEM = system: CCRF-CEM
SK-OV-3 = system: SK-OV-3
NCI/ADR-RES = system: NCI/ADR-RES

Measured: GI50

O=C(O)c1ccc(C2SCc3nc4ccccc4n32)cc1 (stereo not drawn)
inactive: PC-3 > 100 µM | LOX IMVI > 10 µM | SNB-75 > 100 µM | RXF 393 > 100 µM | SK-MEL-28 > 100 µM | NCI-H460 > 100 µM | DU-145 > 100 µM | OVCAR-5 > 100 µM | SF-295 > 100 µM | OVCAR-3 > 100 µM | NCI-H23 > 100 µM | K562 > 100 µM | KM12 > 100 µM | Malme-3M > 100 µM | A549 > 100 µM | HT-29 > 100 µM | HL-60 > 100 µM | CCRF-CEM > 100 µM

O=C(c1cc(Cl)ccc1Cl)N1CCN(c2ccc(Cl)c(Cl)c2)CC1
inactive: PC-3 42.8 µM | LOX IMVI 26.4 µM | SNB-75 31.1 µM | RXF 393 15.4 µM | SK-MEL-28 39.6 µM | NCI-H460 17 µM | DU-145 61.2 µM | OVCAR-5 16.6 µM | SF-295 45.4 µM | OVCAR-3 31.4 µM | NCI-H23 33.5 µM | K562 18.1 µM | KM12 16 µM | Malme-3M 17.9 µM | A549 26.9 µM | HT-29 22.8 µM | HL-60 76.9 µM | CCRF-CEM 41.6 µM

O=C1OC(c2ccccc2)=N/C1=C\c1ccc(Br)cc1
inactive: PC-3 > 100 µM | LOX IMVI > 100 µM | SNB-75 > 100 µM | RXF 393 > 100 µM | SK-MEL-28 > 100 µM | SK-OV-3 > 100 µM | NCI-H460 > 100 µM | DU-145 > 100 µM | OVCAR-5 > 100 µM | SF-295 > 100 µM | OVCAR-3 > 100 µM | NCI-H23 > 100 µM | K562 > 100 µM | KM12 > 100 µM | Malme-3M 74.8 µM | A549 > 100 µM | HT-29 > 100 µM | HL-60 > 100 µM | CCRF-CEM 26.4 µM

O=C1CSC(c2ccc(Cl)cc2)N1c1ccc(-n2c(-c3ccccc3)nc3ccccc3c2=O)cc1 (stereo not drawn)
inactive: PC-3 53.8 µM | LOX IMVI 50.8 µM | SNB-75 7.64 µM | SK-MEL-28 > 100 µM | SK-OV-3 > 100 µM | NCI-H460 36.5 µM | DU-145 > 10 µM | OVCAR-5 > 100 µM | SF-295 46.1 µM | NCI/ADR-RES 23.8 µM | OVCAR-3 > 100 µM | NCI-H23 > 100 µM | K562 36.8 µM | KM12 24.4 µM | Malme-3M 48.9 µM | A549 60.8 µM | HT-29 84.7 µM | CCRF-CEM 45.7 µM
